Assay results taken from PMC8989888, “Development of optimized drug-like small molecule inhibitors of the SARS-CoV-2 3CL protease for treatment of COVID-19” (Nature Communications, 2022).
pEC50, pIC50: −log10 of the molar value. Values joined by “and” are separate entries in the source; they are usually repeats but may differ in a detail not shown here. Equal values may be shown once. “Also recorded” adds a separate entry of the source. Read-outs that look alike come from different tables or passages of the source.

Assays:
[1] = target: PLpro (Severe acute respiratory syndrome coronavirus 2, UniProt P0DTD1); test: Protease selectivity panel: PLpro; assay type: biochemical; conditions: SARS-CoV-2 recombinant
[2] = target: MMP 1 (Homo sapiens, UniProt P03956); test: biochemical
[3] = target: Cathepsin B (Homo sapiens, UniProt P07858); test: biochemical
[4] = 2 mg/ml (3.5 mM) in water
[5] = target: Factor Xa (Homo sapiens, UniProt P00742); test: biochemical
[6] = test system: Influenza A H1N1 (strain: California/07/2009); test: microbe, parasite or virus in culture; assay type: cell-based
[7] = target: Caspase 8 (Homo sapiens, UniProt Q14790); test: biochemical
[8] = target: Thrombin a (Homo sapiens, UniProt P00734); test: biochemical
[9] = target: Cathepsin S (Homo sapiens, UniProt P25774); test: Protease selectivity panel: Cathepsin S
[10] = both, C57BL/6, mouse, in vivo
[11] = target: Furin (Homo sapiens, UniProt P09958); test: biochemical
[12] = target: TMPRSS2 (Homo sapiens, UniProt O15393); test: biochemical
[13] = in vitro
[14] = target: T1, SARS-CoV-2 3CL protease (Severe acute respiratory syndrome coronavirus 2, UniProt P0DTD1); test: biochemical
[15] = test system: SARS-CoV-2; test: microbe, parasite or virus in culture; assay type: cell-based
[16] = test system: SARS-CoV-2; test: microbe, parasite or virus in culture; assay type: cell-based; conditions: Severe acute respiratory syndrome coronavirus 2, read-out: SARS-CoV-2 EC50
[17] = test system: SARS-CoV-2; test: microbe, parasite or virus in culture; conditions: Severe acute respiratory syndrome coronavirus 2, Caco-2, 72 h, read-out: SARS-CoV-2 Caco-2 EC90
[18] = target: Elastase (Homo sapiens, UniProt P08246); test: biochemical
[19] = test system: Human coronavirus beta (strain: OC43); test: organism not typed; assay type: cell-based, HCoV-OC43; conditions: Huh-7, read-out: EC50, human coronavirus OC43
[20] = target: T1, SARS-CoV-2 3CL protease; test: biochemical; conditions: for pIC50: read-out: SARS-CoV-2 3CLpro IC50
[21] = target: T2, Cathepsin L (Homo sapiens, UniProt P07711); test: Protease selectivity panel: Cathepsin L; assay type: biochemical
T2 construct: Human liver; from tissue; host or cells: human liver

[22] = target: ACE2 (Homo sapiens, UniProt Q9BYF1); test: biochemical
[23] = test system: SARS coronavirus (strain: Urbani); test: organism not typed; assay type: cell-based, SARS-CoV
[24] = target: Cathepsin K (Homo sapiens, UniProt P43235); test: Protease selectivity panel: Cathepsin K
[25] = target: Trypsin (Bos taurus, UniProt P00760); test: Protease selectivity panel: Trypsin; assay type: biochemical; conditions: Bovine pancreas
[26] = target: ACE1 (Homo sapiens, UniProt P12821); test: biochemical
[27] = test system: Human coronavirus alpha (strain: 229E); test: organism not typed; assay type: cell-based, HCoV-229E
[28] = In vivo safety study of NK01-63 (body weight); conditions: C57BL/6 mice, 20 mg/kg IP or PO once per day, 14 days, vs vehicle
[29] = target: Urokinase (Homo sapiens, UniProt P00749); test: biochemical
[30] = mouse, in vivo, po
[31] = test system: MERS Coronavirus (strain: EMC); test: microbe, parasite or virus in culture; assay type: cell-based, MERS-CoV

T2 sequence (P07711 114-333): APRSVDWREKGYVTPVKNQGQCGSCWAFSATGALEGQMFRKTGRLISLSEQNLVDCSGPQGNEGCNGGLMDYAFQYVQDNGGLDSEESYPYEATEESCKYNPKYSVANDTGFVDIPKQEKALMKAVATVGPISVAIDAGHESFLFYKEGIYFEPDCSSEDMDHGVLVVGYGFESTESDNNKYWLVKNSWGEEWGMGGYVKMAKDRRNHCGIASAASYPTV
Sequence of Cathepsin K (P43235 115-329): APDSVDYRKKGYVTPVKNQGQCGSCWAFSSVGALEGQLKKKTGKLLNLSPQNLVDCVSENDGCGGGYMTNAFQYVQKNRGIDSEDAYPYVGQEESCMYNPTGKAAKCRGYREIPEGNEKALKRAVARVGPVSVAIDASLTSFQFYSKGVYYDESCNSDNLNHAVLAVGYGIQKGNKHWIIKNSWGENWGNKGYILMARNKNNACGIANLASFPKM
Sequence of Furin (P09958 108-715): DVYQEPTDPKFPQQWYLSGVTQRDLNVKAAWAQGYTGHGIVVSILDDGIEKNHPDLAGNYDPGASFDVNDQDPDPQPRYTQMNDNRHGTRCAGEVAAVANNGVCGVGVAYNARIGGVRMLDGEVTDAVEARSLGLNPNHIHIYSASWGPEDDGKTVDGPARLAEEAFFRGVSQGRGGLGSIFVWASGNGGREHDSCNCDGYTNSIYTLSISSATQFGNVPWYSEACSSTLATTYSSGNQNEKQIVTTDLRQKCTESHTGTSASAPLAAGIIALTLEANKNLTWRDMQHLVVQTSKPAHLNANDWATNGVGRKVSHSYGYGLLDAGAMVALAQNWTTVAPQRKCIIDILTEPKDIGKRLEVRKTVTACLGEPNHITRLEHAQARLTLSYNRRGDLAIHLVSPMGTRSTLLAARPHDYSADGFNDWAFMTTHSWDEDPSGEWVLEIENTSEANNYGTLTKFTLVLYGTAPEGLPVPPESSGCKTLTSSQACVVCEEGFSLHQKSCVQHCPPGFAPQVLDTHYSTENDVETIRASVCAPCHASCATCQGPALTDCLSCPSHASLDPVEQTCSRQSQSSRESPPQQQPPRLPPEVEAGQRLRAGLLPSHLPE
Sequence of Factor Xa (P00742 235-488): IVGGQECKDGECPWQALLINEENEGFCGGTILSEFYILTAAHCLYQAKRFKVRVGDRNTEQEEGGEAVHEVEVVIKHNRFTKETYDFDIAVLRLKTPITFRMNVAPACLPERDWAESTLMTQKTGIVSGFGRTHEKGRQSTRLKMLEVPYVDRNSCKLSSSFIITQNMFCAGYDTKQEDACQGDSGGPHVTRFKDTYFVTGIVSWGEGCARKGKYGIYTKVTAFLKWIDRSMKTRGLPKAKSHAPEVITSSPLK
Sequence of Factor Xa (P00742 41-179): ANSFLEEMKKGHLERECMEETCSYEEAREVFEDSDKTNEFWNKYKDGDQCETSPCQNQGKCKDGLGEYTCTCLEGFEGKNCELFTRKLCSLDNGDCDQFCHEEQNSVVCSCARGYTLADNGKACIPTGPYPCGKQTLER
Sequence of Elastase (P08246 30-267): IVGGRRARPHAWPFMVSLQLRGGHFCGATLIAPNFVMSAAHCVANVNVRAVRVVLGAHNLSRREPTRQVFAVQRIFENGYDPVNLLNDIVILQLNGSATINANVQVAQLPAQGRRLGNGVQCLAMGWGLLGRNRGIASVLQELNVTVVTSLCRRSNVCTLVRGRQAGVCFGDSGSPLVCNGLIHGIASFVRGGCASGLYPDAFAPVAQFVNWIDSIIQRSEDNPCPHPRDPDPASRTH
Sequence of ACE2 (Q9BYF1 18-740): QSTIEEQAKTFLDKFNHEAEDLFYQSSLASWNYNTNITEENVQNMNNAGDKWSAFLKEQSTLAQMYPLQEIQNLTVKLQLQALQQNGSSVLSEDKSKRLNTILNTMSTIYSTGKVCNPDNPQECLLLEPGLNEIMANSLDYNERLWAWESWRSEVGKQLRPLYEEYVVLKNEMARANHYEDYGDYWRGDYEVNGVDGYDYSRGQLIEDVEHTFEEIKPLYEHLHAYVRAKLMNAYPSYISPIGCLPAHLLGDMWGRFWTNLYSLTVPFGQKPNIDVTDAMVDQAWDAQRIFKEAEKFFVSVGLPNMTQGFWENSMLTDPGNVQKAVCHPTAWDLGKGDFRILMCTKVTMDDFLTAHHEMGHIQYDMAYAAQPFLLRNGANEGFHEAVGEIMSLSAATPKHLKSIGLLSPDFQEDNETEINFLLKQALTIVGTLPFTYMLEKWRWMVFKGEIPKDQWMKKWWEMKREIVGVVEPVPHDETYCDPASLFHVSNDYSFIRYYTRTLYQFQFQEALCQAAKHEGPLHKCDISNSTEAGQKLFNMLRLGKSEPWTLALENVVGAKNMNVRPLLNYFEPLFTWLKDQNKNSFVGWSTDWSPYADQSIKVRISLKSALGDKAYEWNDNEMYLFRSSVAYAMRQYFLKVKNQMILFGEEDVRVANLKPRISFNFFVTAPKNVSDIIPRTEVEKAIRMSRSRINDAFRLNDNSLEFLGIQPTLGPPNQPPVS
Sequence of ACE1 (P12821 30-1261): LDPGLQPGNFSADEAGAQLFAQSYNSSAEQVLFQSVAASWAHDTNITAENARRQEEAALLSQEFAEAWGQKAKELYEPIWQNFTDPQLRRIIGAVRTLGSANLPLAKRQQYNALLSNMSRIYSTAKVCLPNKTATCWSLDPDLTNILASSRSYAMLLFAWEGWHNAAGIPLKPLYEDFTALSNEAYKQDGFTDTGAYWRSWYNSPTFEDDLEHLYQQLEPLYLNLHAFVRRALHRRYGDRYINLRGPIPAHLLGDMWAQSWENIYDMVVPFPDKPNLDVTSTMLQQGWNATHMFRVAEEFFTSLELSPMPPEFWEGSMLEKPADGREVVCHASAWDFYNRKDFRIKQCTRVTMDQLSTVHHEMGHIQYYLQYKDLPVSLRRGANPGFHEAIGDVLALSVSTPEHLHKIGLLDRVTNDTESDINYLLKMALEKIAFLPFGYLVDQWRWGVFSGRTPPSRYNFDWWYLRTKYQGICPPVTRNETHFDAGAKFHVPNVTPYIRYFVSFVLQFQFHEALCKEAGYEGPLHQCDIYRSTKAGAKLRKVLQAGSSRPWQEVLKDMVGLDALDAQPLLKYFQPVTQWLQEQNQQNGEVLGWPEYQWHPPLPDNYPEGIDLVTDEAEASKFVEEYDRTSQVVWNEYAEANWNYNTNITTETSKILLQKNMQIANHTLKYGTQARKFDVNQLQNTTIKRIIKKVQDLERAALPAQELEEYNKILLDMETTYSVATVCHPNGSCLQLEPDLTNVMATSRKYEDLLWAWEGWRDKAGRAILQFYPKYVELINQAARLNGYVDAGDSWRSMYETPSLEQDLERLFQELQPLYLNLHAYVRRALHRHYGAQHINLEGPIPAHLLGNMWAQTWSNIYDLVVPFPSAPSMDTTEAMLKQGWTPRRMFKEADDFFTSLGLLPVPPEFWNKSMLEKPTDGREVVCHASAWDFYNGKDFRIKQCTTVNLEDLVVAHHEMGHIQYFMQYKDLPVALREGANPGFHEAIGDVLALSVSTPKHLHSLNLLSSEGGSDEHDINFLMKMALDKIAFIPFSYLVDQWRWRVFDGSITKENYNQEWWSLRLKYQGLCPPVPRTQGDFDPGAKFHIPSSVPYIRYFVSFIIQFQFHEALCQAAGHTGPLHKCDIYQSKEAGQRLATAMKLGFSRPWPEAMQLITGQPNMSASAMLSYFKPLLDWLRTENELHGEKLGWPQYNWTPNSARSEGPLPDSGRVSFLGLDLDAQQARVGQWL
Sequence of Cathepsin S (P25774 115-331): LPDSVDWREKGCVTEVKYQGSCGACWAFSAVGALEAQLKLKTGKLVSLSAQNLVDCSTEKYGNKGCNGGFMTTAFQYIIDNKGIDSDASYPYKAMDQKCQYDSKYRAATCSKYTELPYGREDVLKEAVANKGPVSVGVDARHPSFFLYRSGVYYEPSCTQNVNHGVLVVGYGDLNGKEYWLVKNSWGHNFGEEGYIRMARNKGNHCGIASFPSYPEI
Sequence of Trypsin (P00760 24-246): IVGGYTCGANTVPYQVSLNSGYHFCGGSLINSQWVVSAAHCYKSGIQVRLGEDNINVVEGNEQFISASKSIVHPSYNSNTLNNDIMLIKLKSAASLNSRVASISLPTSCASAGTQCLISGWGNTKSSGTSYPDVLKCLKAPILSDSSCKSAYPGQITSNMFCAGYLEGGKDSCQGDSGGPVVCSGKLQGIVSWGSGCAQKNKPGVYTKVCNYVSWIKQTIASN
Sequence of TMPRSS2 (O15393 106-492): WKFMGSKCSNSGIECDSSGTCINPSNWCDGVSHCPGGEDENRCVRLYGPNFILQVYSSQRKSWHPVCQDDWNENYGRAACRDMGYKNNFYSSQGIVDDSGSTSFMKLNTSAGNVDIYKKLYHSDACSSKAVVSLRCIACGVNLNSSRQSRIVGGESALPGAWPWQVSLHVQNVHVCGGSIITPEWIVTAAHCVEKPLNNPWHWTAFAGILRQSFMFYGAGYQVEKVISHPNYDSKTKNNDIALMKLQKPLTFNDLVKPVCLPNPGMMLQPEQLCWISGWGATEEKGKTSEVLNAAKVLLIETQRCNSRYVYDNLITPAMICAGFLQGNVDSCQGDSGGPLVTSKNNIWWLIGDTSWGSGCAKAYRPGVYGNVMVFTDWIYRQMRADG
Sequence of MMP 1 (P03956 100-268): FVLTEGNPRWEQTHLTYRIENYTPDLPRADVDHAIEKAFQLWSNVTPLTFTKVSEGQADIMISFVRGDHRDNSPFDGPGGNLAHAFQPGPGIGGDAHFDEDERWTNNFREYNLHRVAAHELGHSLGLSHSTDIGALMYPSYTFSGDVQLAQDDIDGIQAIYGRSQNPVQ
Sequence of Caspase 8 (Q14790 217-479): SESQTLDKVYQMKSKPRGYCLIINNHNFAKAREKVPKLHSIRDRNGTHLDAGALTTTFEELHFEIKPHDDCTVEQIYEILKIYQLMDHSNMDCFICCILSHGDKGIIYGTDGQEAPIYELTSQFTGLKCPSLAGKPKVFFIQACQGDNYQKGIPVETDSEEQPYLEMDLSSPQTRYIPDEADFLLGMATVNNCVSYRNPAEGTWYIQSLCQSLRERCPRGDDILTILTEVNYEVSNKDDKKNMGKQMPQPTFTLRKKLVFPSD

For `CC(C)C[C@H](NC(=O)OCc1cccc(C(F)(F)F)c1)C(=O)N[C@@H](C[C@@H]1CCNC1=O)C(O)S(=O)(=O)O` (stereo partly drawn) [NK01-63], the pIC50 [1] was < 4.00, the pIC50 [2] was < 4.00 and the pIC50 [3] was 5.96. For the same compound, the “appearance of dosing solution in water” value [4] was “the solution was clear”, the pIC50 [5] was < 4.00 and the “effect on replication of Influenza H1N1 (in words)” value [6] was “no effect was observed”. For the same compound, the pEC50 ([6]; Influenza A virus, H1N1, MDCK, read-out: Influenza A (H1N1) MDCK EC50) was < 4.00, the pIC50 [7] was 4.74 and the pIC50 [8] was < 4.00. For the same compound, the pIC50 [9] was 7.52, the “concentration in plasma and lung as multiple of EC90” value [10] was > 100 x EC90 and the pIC50 [11] was < 4.00. For the same compound, the pIC50 [12] was < 4.00, the CC50 [13] was > 100 µM and the “observed inactivation rate vs compound concentration (Figure S19, replicate values)” value [14] was 0.0289 and 0.04017 and 0.02561 and 0.0288 and 0.05998 and 0.02398 and 0.0512 and 0.02223 and 0.03571 and 0.0324 and 0.05689 and 0.02237 and 0.0081 and 0.01635 and 0.01687. For the same compound, the kinact/KI ([14]; read-out: SARS-CoV-2 3CLpro kinact/KI) was 73300 M⁻¹ s⁻¹, the “inhibition of SARS-CoV-2 (Figure s17b dose-response, replicate values)” value [15] was 85.8805 and 70.4035 and 120.64 and 101.121 and 104.666 and 80.4107 and 75.7397 and 52.4625 and 52.0629 and 53.1789 and 26.443 and 29.7439 and 43.7589 and 41.2695 and 18.2065 and 24.2009 and 38.2936 and 12.6905 and -1.598 and 19.9884 and -12.0156 and the pEC50 ([15]; Severe acute respiratory syndrome coronavirus 2, 24 h, read-out: SARS-CoV-2 Huh-7ACE2 EC50) was 8.22. For the same compound, the pEC50 [16] was 6.84, the EC90 [17] was 0.081 µM and the pIC50 [18] was < 4.00. For the same compound, the pEC50 [19] was > 7.00, the pIC50 ([20]; 20 nM protease) was 7.80 and the “normalized activity, dose-response curve (Figure S16)” value (“normalized activity” for short) ([20]; Concentration of inhibitor (nM) 0.19382) was 93.111 and 89.2676. The “normalized activity” value ([20]; Concentration of inhibitor (nM) 0.49485) was 89.4126 and 81.5809, the “normalized activity” value ([20]; Concentration of inhibitor (nM) 0.79588) was 77.0123 and 75.7796 and the “normalized activity” value ([20]; Concentration of inhibitor (nM) 1.09691) was 63.0167 and 61.2038. For the same compound, the “normalized activity” value ([20]; Concentration of inhibitor (nM) 1.39794) was 43.8724 and 49.3111, the “normalized activity” value ([20]; Concentration of inhibitor (nM) 1.69897) was 23.8579 and 30.4568 and the “normalized activity” value ([20]; Concentration of inhibitor (nM) 2) was 10.3698 and 13.7056. For the same compound, the “normalized activity” value ([20]; Concentration of inhibitor (nM) 2.30103) was 8.412 and 10.6599, the “normalized activity” value ([20]; Concentration of inhibitor (nM) 2.60206) was 5.004 and 8.702 and the “normalized activity” value ([20]; Concentration of inhibitor (nM) -0.10721) was 91.5881 and 97.1719. For the same compound, the “normalized activity” value ([20]; Concentration of inhibitor (nM) -0.40824) was 100 and 96.1566, the pIC50 ([20]; Supplementary Table 2) was 8.22 and the pIC50 ([21]; Human liver, substrate 1 (Z-FR-AMC), […] Cathepsin L, read-out: IC50) was 8.22. The pIC50 ([21]; Human liver, substrate 2 (MCA-PLGL-Dap(Dnp)-AR-NH2), 0.5 nM Cathepsin L, read-out: IC50) was 6.77, the pIC50 ([21]; read-out: IC50 on human cathepsin L) was 8.22 and the pIC50 [22] was < 4.00. The pEC50 ([23]; Vero 76, read-out: SARS-CoV Vero 76 EC50) was > 5.52, the pEC50 ([23]; read-out: SARS-CoV Vero 76 EC50) was 5.68 and the pIC50 [24] was 7.40. The pIC50 [25] was < 4.00, the pIC50 [26] was < 4.00 and the pEC50 ([27]; Huh-7, read-out: EC50, human coronavirus 229E) was > 7.00. The pEC50 ([27]; Huh-7, read-out: HCoV-229E Huh-7 EC50) was 6.77, the “body weight change / in vivo toxicity” value [28] was “no in vivo toxicity via either route of administration; also recorded: No significant change in body weight” and the pIC50 [29] was < 4.00. For the same compound, the “Body weight relative to day 0 (Figure 6A)” value [30] was 100, the pEC50 ([31]; Middle East respiratory syndrome-related coronavirus, Vero 76, read-out: MERS-CoV Vero 76 EC50) was > 6.00 and the pEC50 ([31]; read-out: MERS-CoV Vero 76 EC50) was 6.09.
